Patent US9056840B2, “Coelenterazine analogues and coelenteramide analogues” (JNC Corporation, priority 2010, dated 2015)

Assays:
Type in all cases: physicochemical
apoaequorin [1] = target: T1, apoaequorin (Aequorea victoria, UniProt P07164); experiment: Fluorescence spectra of semi-synthetic gFP (coelenteramide analogue + apoaequorin, EDTA); conditions: 10 mM EDTA buffer, excitation 337 nm
T1 construct: purchased Chisso Corporation
Description: Semi-synthetic gFP was prepared from recombinant apoaequorin and coelenteramide analogues as follows. In 1 ml of 50 mM Tris-HC 1 (pH 7.6) containing 10 mM EDTA and 1 mM DTT, apoaequorin (0.2 mg) was mixed with 8 μl of a coelenteramide analogue (1 μg/μl in anhydrous methanol). The mixture was allowed to stand 4° C. for 16 hours to prepare semi-synthetic gFP-like protein (hereinafter sometimes simply referred to as “semi-synthetic gFP”).
(§1) The fluorescence spectra were determined as follows. For coelenteramide analogue alone, the fluorescence was measured according to the procedures for semi-synthetic gFP and semi-synthetic BFP described in EXAMPLES 11 and 12, except for in the absence of apoaequorin, using 1 ml of 50 mM Tris-HCl (pH 7.6) containing 10 mM EDTA and 1 mM DTT or 1 ml of 50 mM Tris-HCl (pH 7.6) containing 10 mM CaCl2 and 1 mM DTT, in the final concentration of coelenteramide analogue adjusted to 8 μg/ml. The fluorescence spectra were measured at 25° C. in a quartz cell (10 mm light path length) using a Jasco FP-6500 spectrofluorometer (excitation wavelength: 337 nm, emission/excitation bandwidth: 3 nm; response: 0.5 sec, scan speed, 1000 nm/min).

apoaequorin [2] = target: T1, apoaequorin; experiment: Fluorescence spectra of semi-synthetic BFP (coelenteramide analogue + apoaequorin, CaCl2); conditions: 10 mM CaCl2 buffer, excitation 337 nm
Description: Semi-synthetic gFP was prepared from recombinant apoaequorin and coelenteramide analogues as follows. In 1 ml of 50 mM Tris-HC 1 (pH 7.6) containing 10 mM CaCl2 and 1 mM DTT, apoaequorin (0.2 mg) was mixed with 8 μl of a coelenteramide analogue (1 μg/μl in anhydrous methanol). The mixture was allowed to stand at 4° C. for 16 hours to prepare semi-synthetic BFP-like protein (hereinafter sometimes simply referred to as “semi-synthetic BFP”).
as §1

[3] = Fluorescence spectra of coelenteramide analogue alone (absence of apoaequorin); conditions: analogue alone 8 μg/ml; for Coelenteramide (Buffer containing CaCl2) Fluorescence intensity (rlu) / Coelenteramide (Buffer containing CaCl2) Maximum fluorescence wavelength λmax (nm): 10 mM CaCl2 buffer pH 7.6, excitation 337 nm; for Coelenteramide (EDTA-containing buffer) Fluorescence intensity (rlu) / Coelenteramide (EDTA-containing buffer) Maximum fluorescence wavelength λmax (nm): 10 mM EDTA buffer pH 7.6, excitation 337 nm
Description: as §1

T1 sequence (P07164 other isoform, or with tags, fused parts or gaps with the stated changes): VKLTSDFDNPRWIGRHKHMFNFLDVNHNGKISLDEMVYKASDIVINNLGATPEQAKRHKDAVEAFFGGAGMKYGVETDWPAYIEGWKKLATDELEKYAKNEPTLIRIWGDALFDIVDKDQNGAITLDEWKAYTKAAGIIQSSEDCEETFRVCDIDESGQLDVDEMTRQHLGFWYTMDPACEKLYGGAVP

| SMILES | Semi-synthetic gFP (EDTA-containing buffer) Fluorescence intensity (rlu) (apoaequorin [1]) | Semi-synthetic gFP (EDTA-containing buffer) Maximum fluorescence wavelength λmax (nm) (apoaequorin [1]) | Fluorescence intensity (apoaequorin [2]) | Semi-synthetic BFP (Buffer containing CaCl2) Maximum fluorescence wavelength λmax (nm) (apoaequorin [2]) | Coelenteramide (Buffer containing CaCl2) Fluorescence intensity (rlu) [3] | Coelenteramide (Buffer containing CaCl2) Maximum fluorescence wavelength λmax (nm) [3] | Coelenteramide (EDTA-containing buffer) Fluorescence intensity (rlu) [3] | Coelenteramide (EDTA-containing buffer) Maximum fluorescence wavelength λmax (nm) [3] |
| --- | --- | --- | --- | --- | --- | --- | --- | --- |
| O=C(Cc1ccc(O)cc1)Nc1ncc(-c2ccc(O)cc2)nc1-c1ccccc1 [Compound 4a, 2-(4-Hydroxyphenyl)-N-[5-(4-hydroxyphenyl)-3-phenylpyrazin-2-yl]acetamide] | 82.9 rlu | 521.5 nm | 148.9 rlu | 507.5 nm | 2.0 rlu | 467.5 nm | 1.9 rlu | 471.0 nm |
| O=C(Cc1ccc(O)cc1)Nc1ncc(-c2ccc(O)cc2)nc1/C=C/c1ccccc1 [Compound 4b] | 43.2 rlu | 530.0 nm | 52.7 rlu | 544.5 nm | 9.4 rlu | 494.5 nm | 7.1 rlu | 495.5 nm |
| C=C(c1ccccc1)c1nc(-c2ccc(O)cc2)cnc1NC(=O)Cc1ccc(O)cc1 [Compound 4c, 2-(4-Hydroxyphenyl)-N-[5-(4-hydroxyphenyl)-3-(1-phenylvinyl)pyrazin-2-yl]acetamide] | 32.1 rlu | 499.0 nm | 25.6 rlu | 492.5 nm | 12.4 rlu | 471.0 nm | 11.8 rlu | 475.5 nm |
| O=C(Cc1ccc(O)cc1)Nc1ncc(-c2ccc(O)cc2)nc1-c1cccc2ccccc12 [Compound 4d, 2-(4-Hydroxyphenyl)-N-[5-(4-hydroxyphenyl)-3-(naphthalen-1-yl)pyrazin-2-yl]acetamide] | 58.8 rlu | 504.5 nm | 98.3 rlu | 487.0 nm | 12.9 rlu | 463.5 nm | 12.4 rlu | 462.5 nm |
| O=C(Cc1ccc(O)cc1)Nc1ncc(-c2ccc(O)cc2)nc1-c1ccc2ccccc2c1 [Compound 4e, 2-(4-Hydroxyphenyl)-N-[5-(4-hydroxyphenyl)-3-(naphthalen-2-yl)pyrazin-2-yl]acetamide] | 72.6 rlu | 487.0 nm | 85.6 rlu | 492.5 nm | 28.6 rlu | 478.0 nm | 28.9 rlu | 478.0 nm |
| O=C(Cc1ccc(O)cc1)Nc1ncc(-c2ccc(O)cc2)nc1-c1cccs1 [Compound 4f, 2-(4-Hydroxyphenyl)-N-[5-(4-hydroxyphenyl)-3-(thiophen-2-yl)pyrazin-2-yl]acetamide] | 70.5 rlu | 536.5 nm | 96.4 rlu | 527.0 nm | 2.2 rlu | 447.0 nm | 2.3 rlu | 448.5 nm |
| O=C(Cc1ccc(O)cc1)Nc1ncc(-c2ccc(O)cc2)nc1-c1ccsc1 [Compound 4g, 2-(4-Hydroxyphenyl)-N-[5-(4-hydroxyphenyl)-3-(thiophen-3-yl)pyrazin-2-yl]acetamide] | 108.5 rlu | 512.5 nm | 195.7 rlu | 501.5 nm | 6.1 rlu | 470.5 nm | 5.5 rlu | 473.0 nm |
| O=C(Cc1ccc(O)cc1)Nc1ncc(-c2ccc(O)cc2)nc1-c1cc2ccccc2s1 [Compound 4h, N-[3-(Benzo[b]thiophen-2-yl)-5-(4-hydroxyphenyl)pyrazin-2-yl]-2-(4-hydroxyphenyl) acetamide] | – | – | 153.3 rlu | 427.0 nm | 101.2 rlu | 426.5 nm | 115.2 rlu | 426.5 nm |
| O=C(Cc1ccc(O)cc1)Nc1ncc(-c2ccc(O)cc2)nc1-c1ccc(-c2cccs2)s1 [Compound 4m, N-[3-(2,2′-Bithiophen-5-yl)-5-(4-hydroxyphenyl)pyrazin-2-yl]-2-(4-hydroxyphenyl) acetamide] | 163.8 rlu | 482.5 nm | 182.4 rlu | 457.5 nm | – | – | – | – |
| CN(C)c1ccc(-c2nc(-c3ccc(O)cc3)cnc2NC(=O)Cc2ccc(O)cc2)cc1 [Compound 4n, N-[3-{4-(Dimethylamino)phenyl}-5-(4-hydroxyphenyl)pyrazin-2-yl]-2-(4-hydroxyphenyl)acetamide] | 151.5 rlu | 485.5 nm | 231.3 rlu | 487.5 nm | – | – | – | – |
| O=C(Cc1ccc(O)cc1)Nc1ncc(-c2ccc(O)cc2)nc1Br [Compound 4t, N-[3-Bromo-5-(4-hydroxyphenyl)pyrazin-2-yl]-2-(4-hydroxyphenyl)acetamide] | 22.0 rlu | 482.5 nm | – | – | 12.1 rlu | 482.0 nm | 11.8 rlu | 480.5 nm |
| O=C(Nc1ccc(O)cc1)Nc1ncc(-c2ccc(O)cc2)nc1Cc1ccccc1 [Compound 4u, 1-[3-Benzyl-5-(4-hydroxyphenyl)pyrazin-2-yl]-3-(4-hydroxyphenyl)urea] | 11.4 rlu | 494.5 nm | – | – | 0.9 rlu | 445.5 nm | 0.7 rlu | 440.5 nm |
| O=C(Nc1ncc(-c2ccc(O)cc2)nc1Cc1ccccc1)c1ccc(O)cc1 [Compound 4x, N-[3-Benzyl-5-(4-hydroxyphenyl)pyrazin-2-yl]-4-hydroxybenzamide] | – | – | 36.8 rlu | 485.0 nm | 1.4 rlu | 450.0 nm | 1.3 rlu | 449.0 nm |
| O=C(Nc1ncc(-c2ccc(O)cc2)nc1Cc1ccccc1)c1cccc(O)c1 [Compound 4y, N-[3-Benzyl-5-(4-hydroxyphenyl)pyrazin-2-yl]-3-hydroxybenzamide] | 44.8 rlu | 492.0 nm | – | – | 1.4 rlu | 457.0 nm | 1.3 rlu | 456.0 nm |
